Patent EP3884941A1, “INFLAMMASOME INHIBITORS AND USE THEREOF” (CENTRO DE INVESTIGACION PRINCIPE FELIPE, priority 2020, dated 2021)
“Also recorded” adds a separate entry of the source. Like-named read-outs stand apart in the source and are kept apart here.

Tests used:
[1] = molecular target: T1, ASC-mediated PC1 activation (Homo sapiens, UniProt P29466); experiment: ASC-mediated PC1 reconstitution in vitro assay (primary screening); type: biochemical
T1 construct: His; made in house; host or cells: PC1: Sf9 insect cells (baculovirus)
T1 sequence (P29466 1-404): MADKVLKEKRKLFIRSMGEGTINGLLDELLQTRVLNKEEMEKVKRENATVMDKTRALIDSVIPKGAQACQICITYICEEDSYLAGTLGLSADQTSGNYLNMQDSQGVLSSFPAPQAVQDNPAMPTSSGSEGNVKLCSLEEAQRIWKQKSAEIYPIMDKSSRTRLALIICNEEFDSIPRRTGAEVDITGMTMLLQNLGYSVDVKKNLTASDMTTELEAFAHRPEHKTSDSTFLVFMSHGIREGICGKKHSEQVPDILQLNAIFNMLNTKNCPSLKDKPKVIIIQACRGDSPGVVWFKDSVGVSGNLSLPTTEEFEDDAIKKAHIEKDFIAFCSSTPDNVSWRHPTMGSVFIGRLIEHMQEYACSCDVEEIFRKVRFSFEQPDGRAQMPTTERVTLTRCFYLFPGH
Method: Recombinant PC1 (50 nM) was preincubated with the indicated concentrations of compounds for 20 min at RT in Assay Buffer (20 mM HEPES pH 7.5, 10 mM KCI, 1.5 mM MgCl2, 1mM EDTA, 1 mM EGTA, 1 mM DTT). Then 300 nM of ASC were added and incubated for another 10 min period. Caspase-1 activation was measured using fluorogenic substrate Ac-WEHD-AFC (80 µM; Enzo Life Sciences) by continuously monitoring the release of the AFC (7-Amino-4-trifluoromethylcoumarin) product in a Wallac Victor workstation. The compounds were initially tested at 20 µM with 1% of DMSO. Data are reported as the percentage of inhibition compared with the absence of the compound.
The materials and methods employed in these experiments are now described.

caspase-9 = molecular target: T2, caspase-9 (Homo sapiens, UniProt P55211); experiment: caspase-9 activity assay (Na-citrate pre-activated); type: biochemical; conditions: recombinant caspase-9; MM01 5 µM (Figure 2B)
T2 sequence (P55211 1-416): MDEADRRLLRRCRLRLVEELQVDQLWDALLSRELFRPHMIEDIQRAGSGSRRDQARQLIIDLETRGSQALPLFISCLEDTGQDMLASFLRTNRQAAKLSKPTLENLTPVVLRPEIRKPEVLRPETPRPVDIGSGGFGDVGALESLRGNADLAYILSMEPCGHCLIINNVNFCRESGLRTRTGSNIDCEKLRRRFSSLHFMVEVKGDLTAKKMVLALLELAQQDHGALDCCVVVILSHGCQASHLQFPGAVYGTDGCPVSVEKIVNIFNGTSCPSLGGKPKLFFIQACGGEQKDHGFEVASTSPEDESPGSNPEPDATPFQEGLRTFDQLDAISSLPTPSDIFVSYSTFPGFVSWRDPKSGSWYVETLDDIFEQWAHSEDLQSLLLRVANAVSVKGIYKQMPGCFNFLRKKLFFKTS
Method: Caspase-9 was activated with kosmotropic salts, in particular with Na-citrate. Briefly, 5 µM caspase-9 was pre-activated for 20 min in SC buffer (50 mM Na2HPO4, 150 mM NaCl, 1.5% sucrose, 0.05% CHAPS, 10 mM DTT, 0.7 M Na-citrate, pH 7.4) at RT. Once pre-activated, the complete reaction was diluted to 100 nM caspase-9 in assay buffer without Na-Citrate and incubated 20 min at RT in the presence or absence of compounds. Enzyme activity was monitored by adding the Ac-LEHD-afc substrate (40 µM) using a Victor 2 spectrofluorimeter.

NLRP3 inflammasome = experiment: inflammasome activation cellular assay, LPS plus ATP, THP-1 cells; type: cell-based, human
Method: The MM01 compound was evaluated in the THP-1, or PMA-differentiated THP-1 cells (50 nM PMA for 24h) stimulated with lipopolysaccharide (LPS) plus adenosine triphosphate (ATP) to stimulate ASC-dependent inflammasomes NLRP3. Briefly, 1x10^6 cells were seeded in 6-well plates in 1 mL RPMI media that contained 1% FBS. Cells were either mock-treated or primed with compounds at the indicated concentrations for 30 min, followed by treatment with 100 ng/mL LPS (Sigma) and 2.5 mM ATP (Sigma) for 6 h at 37°C. In the case of nigericin stimulation, cells were primed with LPS for 3h, and then 10 µM nigericin (Sigma) was added for 30 min. Supernatants were harvested and clarified by centrifugation at 1500 rpm at RT, and a cytokine analysis was performed. Both IL-1β secretion and the release of IL-18were monitored by an ELISA assay (BD OptEIA™ Human IL-1β ELISA Kit and Human IL-18 Module Set eBioscience) following the manufacturer's instructions. Cell viability was analyzed in parallel by evaluating the release of lactate dehydrogenase (LDH) according to a commercial kit (CytoTox-ONE™ Homogeneous Membrane Integrity Assay; Promega). The release of LDH was calculated using the formula: the release of LDH (%) = 100x (Abs490 treated -Abs490 untreated cells)/ Abs490 untreated cells lysed with Triton 9% (maximum release of LDH).
The supernatants of the treated cells were precipitated by the chloroform-methanol method. Pellets were obtained by lysing cells in 25 mM of Tris-HCI pH 7.4, 1 mM EDTA, 1 mM EGTA and 1% SDS, plus protease and phosphatase inhibitors. The protein concentration was determined by the BCA protein assay. Samples were separated in a 14% SDS-PAGE gel, transferred to a nitrocellulose membrane and blocked with 5% skimmed milk for 1 h. Then the membrane was incubated overnight with primary antibodies: α-casp1 (1:1000; Cell Signaling 2225), α-IL-1β (1:1000; Acris R1130P), α-NLRP3 (1:1000; Cell Signaling 15101), α-tubulin (1:3000; Abcam ab6160) at 4°C. Membranes were washed and probed with the appropriate secondary antibody conjugated with peroxidase for enhanced chemiluminescence detection (Amersham Pharmacia Biotech).

ASC oligomerization = ASC oligomerization assay (DSS crosslinking, immunoblotting); type: cell-based, human; conditions: crosslinked pellets, LPS plus nigericin; MM01 10 µM, VX-765 5 µM
Method: PMA-differentiated THP-1 cells were seeded at 1x10^6 cells/ml in 6-well plates. Cells were treated with compounds for 30 min, primed with 100 ng/ml LPS for 3h and then stimulated with 10 µM nigericin for 30 min. The supernatants were removed, cells were rinsed in ice-cold PBS and lysed in NP-40 buffer (20 mM HEPES-KOH pH 7.5, 150 mM KCL, 1% NP-40 plus protease inhibitors). Lysates were centrifuged at 330 × g for 10 min at 4 °C. The pellets were washed and resuspended in PBS plus 2 mM disuccinimidyl suberate (DSS) and incubated at RT for 30 min with rotation. Samples were then centrifuged at 330 × g for 10 min at 4 °C. The supernatant was removed, and the cross-linked pellets were resuspended in sample buffer, boiled and analyzed by immunoblotting.

[2] = THP-1, LPS 100 ng/ml + ATP 2.5 mM, MM01 1, 2.5 or 5 µM, ELISA

Q: For `C=CCN1C(=O)/C(=C2/C(=O)Nc3ccccc32)SC1=S` [MM01], which IC50 ([1]; PC1 50 nM, ASC 300 nM, substrate Ac-WEHD-AFC, read-out: IC50) is on record?
A: 500 ± 100 nM

Q: What about the IC50 ([1]; dose-response curve 0.04 to 40 µM (Figure 1B), stated in words) of the same compound?
A: in the nanomolar range

Q: And the “formation of p20 subunit” value ([1]; immunoblotting of PC1 processing (Figure 1C))?
A: decrease

Q: What about the caspase-9 activity (caspase-9) of the same compound?
A: do not act on

Q: What about the IL-1β secretion (NLRP3 inflammasome; [2]) of the same compound?
A: decrease

Q: What about the IL-18 secretion (NLRP3 inflammasome; [2]) of the same compound?
A: decrease

Q: What about the “caspase-1 and IL-1β processing” value (NLRP3 inflammasome; THP-1, LPS + ATP, immunoblotting (Figure 3C)) of the same compound?
A: decrease

Q: And the LDH release (NLRP3 inflammasome; THP-1, LPS + ATP, pyroptosis / cell viability, MM01 1, 2.5 or 5 µM, VX-765 5 µM)?
A: significantly reduce; also recorded: significantively decreased

Q: What about the ASC oligomerization (ASC oligomerization) of the same compound?
A: inhibited
